Earlier results as cited in paper PMC9441699 (Frontiers in Cellular and Infection Microbiology, 2022).
Like-named read-outs stand apart in the source and are kept apart here.

How the values were obtained:
[1] = test system: HcoV-NL63 inLLC-MK2 cells; set-up: method as in Weng et al., 2019; details: 0, 10, 50,100 µM/36h; ref Weng et al., 2019; read-out: Inhibition of viral cytopathicity IC50
SARS-CoV [2] = details: read-out: EC50 SARS-CoV viral replication
Vero cells = test system: Vero cells; set-up: method as in Ho et al., 2007; details: 0, 10, 50, 100, 200 and 400 µ/mL; ref Ho et al., 2007
MERS-CoV = details: 2019
SARS-CoV [3] = details: ref Li et al., 2005
HcoV-OC43 = details: 2019
[4] = biological target: angiotensin converting enzyme from rabbit lung; set-up: method as in Yu et al., 2012; details: 0.01-10 µM; ref Yu et al., 2012
RdRp Dengue virus = test system: RdRp Dengue virus; set-up: method as in Coulerie et al., 2013; details: in vitro; ref Coulerie et al., 2013
[5] = test system: interaction of S protein with ACE2; set-up: method as in Ho et al., 2007; dose or concentration left out as unconfirmed; details: ref Ho et al., 2007
[6] = 1, 2.5, 20 µM/16h, ref Jo et al., 2020, read-out: IC50
[7] = tanshinones from Salvia miltiorrhiza, read-out: IC50 against PLpro

O=c1cc(-c2ccc(O)cc2)oc2cc(O)c(O)c(O)c12 [Ligand L13, Scutellarein]
inhibitory effect against SARS-CoV helicase (SARS-CoV helicase): moderate inhibitory impacts | IC50 (SARS-CoV helicase; 0.01-10 µM, In vitro, ref Yu et al., 2012): 0.86 µM

O=C(/C=C/c1ccc(O)c(O)c1)O[C@@H]1C[C@](O)(C(=O)O)C[C@@H](O)[C@H]1O [Ligand L11, Chlorogenic acid]
IC50 [1]: 43.5 µM

COC(=O)[C@H]1[C@H]2C[C@@H]3c4[nH]c5cc(OC)ccc5c4CCN3C[C@H]2C[C@@H](OC(=O)c2cc(OC)c(OC)c(OC)c2)[C@@H]1OC [Reserpine]
EC50 (SARS-CoV [2]): 3.4 µM

CC(C)=CCc1cc2c(cc1O)oc(=O)c1c3ccc(O)cc3oc21 [Ligand L04, Psoralidin]
IC50 (SARS-CoV-PLpro; 0-100 µM, ref Kim et al., 2014, read-out: IC50): 4.2 µM

Cc1cc(O)c2c(c1)C(=O)c1cc(O)cc(O)c1C2=O [Ligand L07, Emodin]
IC50 (Vero cells): 200 µM

O[C@H]1[C@H]2c3cc4c(cc3CN3CCC(=C[C@@H]1O)[C@H]23)OCO4 [lycorine]
EC50 (MERS-CoV; in vitro, ref Shen et al.): 1.63 µM | EC50 (SARS-CoV [3]; MTS test, read-out: EC50 against SARS-CoV): 0.0157 ± 0.0012 µM | IC50 (SARS-CoV [3]; Prasansuklab et al., 2020, read-out: IC50 anti-SARS-CoV): 0.0157 µM | EC50 (HcoV-OC43; in vitro, ref Shen et al.): 0.15 µM | EC50 (HcoV-NL63; in vitro, ref Shen et al., 2019, read-out: EC50 HcoV-NL63): 0.47 µM

O=C(O)/C=C/c1ccc(O)c(O)c1 [Ligand L10, Caffeic acid]
IC50 [1]: 3.54 µM

O=c1c(O)c(-c2cc(O)c(O)c(O)c2)oc2cc(O)cc(O)c12 [Ligand L03, Myricetin]
IC50 [4]: 2.71 µM | inhibitory effect against SARS-CoV helicase (SARS-CoV helicase): moderate inhibitory impacts

C[C@H]1COC2=C1C(=O)C(=O)c1c2ccc2c1CCCC2(C)C [Ligand L08, Cryptotanshinone]
IC50 (SARS-CoV-PLpro; 0-200 µM/30min, ref Park et al., 2012b, read-out: IC50): 0.8 µM

C=C(C)C(Cc1c(OC)ccc(C(=O)/C=C/c2ccc(O)cc2)c1O)OO (stereo not shown) [Ligand L02, Xanthoangelol E]
IC50 (SARS-CoV-PLpro; 0, 12.5, 25, 50 µM, ref Park et al., 2016, read-out: Inhibition of SARS-CoV-PLpro activity IC50): 1.2 µM | IC50 (SARS-CoV-3CLpro; 0, 12.5, 25, 50 µM, ref Park et al., 2016, read-out: Inhibition of SARS-CoV-3CLpro activity IC50): 11.4 µM

C[C@@H]1O[C@@H](O[C@H]2[C@H](Oc3cc(O)c4c(=O)cc(-c5ccc(O)cc5)oc4c3)O[C@H](CO)[C@@H](O)[C@@H]2O)[C@H](O)[C@H](O)[C@H]1O [Ligand L18, Rhoifolin]
IC50 (SARS-CoV-3CLpro; [6]): 27.4 µM

O=C(O)c1cc(O)c(O)c(O)c1 [Ligand L12, Gallic acid]
IC50 [1]: 71.5 µM

COc1cc(O)c2c(=O)cc(-c3ccc(O)cc3)oc2c1-c1cc(-c2cc(=O)c3c(O)cc(O)cc3o2)ccc1O [sotetsuflavone]
IC50 (RdRp Dengue virus): 0.16 µM

Cc1coc2c1C(=O)C(=O)c1c-2ccc2c1CCCC2(C)C [tanshinone IIA]
IC50 (SARS-CoV-PLpro; [7]): 1.6 µM

O=c1c(O)c(-c2ccc(O)cc2)oc2c(O)c(O)cc(O)c12 [Ligand L16, Herbacetin]
IC50 (SARS-CoV-3CLpro; [6]): 33.2 µM

COc1cc(/C=C/C(=O)NC(O)C(=O)c2ccc(O)cc2)ccc1O (stereo not shown) [Ligand L15, Terrestrimine]
IC50 (SARS-CoV-PLpro; 1,10,100,1000 µM, ref Song et al., 2014, read-out: IC50): 15.8 µM

COc1ccc(-c2cc(=O)c3c(O)c(OC)c(O[C@@H]4O[C@H](CO[C@@H]5O[C@@H](C)[C@H](O)[C@@H](O)[C@H]5O)[C@@H](O)[C@H](O)[C@H]4O)cc3o2)cc1 [Ligand L17, Pectolinarin]
IC50 (SARS-CoV-3CLpro; [6]): 37.8 µM

curcumin
IC50 (SARS-CoV-PLpro; diarylheptanoids, ref Park et al., 2012a, read-out: IC50 PLpro): 5.7 µM

COc1ccc(C(=O)/C=C/c2ccc(O)cc2)c(O)c1C/C=C(\C)CCC=C(C)C [xanthoangelol F]
IC50 (SARS-CoV-PLpro; noncompetitive inhibition, ref Park et al., 2016, read-out: IC50 PLpro): 5.6 µM

CC[C@H](CC[C@@H](C)[C@H]1CC[C@H]2[C@@H]3CC=C4C[C@@H](O)CC[C@]4(C)[C@H]3CC[C@]12C)C(C)C [Sitosternol]
EC50 (HcoV-NL63; ref Lin et al., 2005, read-out: EC50 against human coronavirus (HCoV-NL63)): 1210 µM

O=c1cc(-c2ccc(O)c(-c3c(O)cc(O)c4c(=O)cc(-c5ccc(O)cc5)oc34)c2)oc2cc(O)cc(O)c12 [Ligand L14, Amentoflavone]
IC50 (SARS-CoV-3CLpro; 0-300 µM, ref Ryu et al., 2010a, read-out: IC50): 8.3 µM

O=C(/C=C/CCc1ccc(O)c(O)c1)CCc1ccc(O)c(O)c1 [Ligand L01, Hirsutenone]
IC50 (SARS-CoV-PLpro; 0-200 µM/60min, ref Park et al., 2012a, read-out: IC50): 4.1 µM

CC[C@H]1CN2CCc3cc(OC)c(OC)cc3[C@@H]2C[C@@H]1C[C@H]1NCCc2cc(OC)c(OC)cc21 [Emetine, reference compound]
EC50 (MERS-CoV; ref Weber and Opatz): 0.34 µM | EC50 (HcoV-OC43; ref Weber and Opatz): 0.3 µM | EC50 (HcoV-NL63; ref Weber and Opatz, 2019, read-out: EC50 HcoV-NL63): 1.43 µM

COc1cc([C@H]2Oc3cc4c(c(O)c3C(=O)[C@@H]2O)CCC(C)(CCCC(C)(C)O)O4)ccc1O (stereo partly shown) [Ligand L06, Tomentin E]
IC50 (SARS-CoV-PLpro; 0, 6.25, 12.5, 25 µM, ref Cho et al., 2013, read-out: IC50): 5 µM

O=c1cc(-c2ccccc2)oc2cc(O)cc(O)c12 [chrysin]
effect on the interaction of S protein with ACE2 [5]: weak inhibitory effect

Oc1cc(O)cc(Oc2c(O)cc(O)c3c2Oc2c(O)cc(Oc4c(O)cc(Oc5c(O)cc(O)c6c5Oc5c(O)cc(O)cc5O6)cc4O)cc2O3)c1 [Ligand L05, Dieckol]
IC50 (SARS-CoV-3CLpro; 0-200 µM, ref Park et al., 2013, read-out: IC50): 2.7 µM

Cc1cccc2c3c(ccc12)C1=C(C(=O)C3=O)[C@@H](C)CO1 [Ligand L09, Dihydrotanshinone l,]
IC50 (SARS-CoV-PLpro; [7]): 4.9 µM | IC50 (SARS-CoV-3CLpro; 0-200 µM/60min, ref Park et al., 2012b, read-out: IC50): 14.4 µM
